Where two headings read alike, the source gives them in different places. Where a SMILES comes first, the peptide text is derived from it. [ ]: non-standard residue; d: D form. NMeF = CN[CH](Cc1ccccc1)C(=O)O; 2Abz = Nc1ccccc1C(=O)O
What was measured:
MCF-7 (breast cancer) = assay: in vitro cytotoxicity against MCF-7; format: cell-based; details: Homo sapiens
Procedure: (§1) All compounds were evaluated for their in vitro cytotoxicity against four human cancer lines, SF-268 (human glioblastoma carcinoma), MCF-7 (breast cancer), HepG-2 (liver cancer), and A549 (lung cancer), as well as antioxidative activity, α-glucosidase inhibitory activity, and antimicrobial activity against the bacteria Staphylococcus aureus and Bacillus subtilis (Tables S1–S3).
(§2) The details of the experimental procedures for cytotoxic and antioxidative bioassays were described previously in our former paper.

[1] = antioxidative activity (DPPH radical scavenging); details: for EC50: DPPH radical scavenging; for Inhibition rate antioxidative activity: primary screening, 100 μM
Procedure: as §1, §2

Staphylococcus aureus = assay: antibacterial assay, Mueller–Hinton broth microdilution; format: cell-based; details: for inhibition at 50 µM: primary screening, read-out: Inhibition rate Staphylococcus aureus
Procedure: (§3) All the compounds were tested for antibacterial activity against Staphylococcus aureus and Bacillus subtilis using the Mueller–Hinton broth microdilution method. Ciprofloxacin was used as a positive control.

Bacillus subtilis = assay: as above; format: cell-based; details: for inhibition at 50 µM: primary screening, read-out: Inhibition rate Bacillus subtilis
Procedure: as §3

A549 (lung cancer) = assay: in vitro cytotoxicity against A549; format: cell-based; details: Homo sapiens
Procedure: as §1, §2

[2] = tested on: SF-268 (human glioblastoma carcinoma); assay: in vitro cytotoxicity against SF-268; format: cell-based
Procedure: as §1, §2

[3] = tested on: intersegmental vessel (ISV) formation; assay: zebrafish assay for in vivo anti-angiogenic activity; details: zebrafish embryos
Procedure: The maintenance of zebrafish and the collection of embryos followed the method in the literature. One day after fertilization, the embryos were dechorionated with tweezers in a Petri dish coated with 1% agarose and distributed into small Petri dishes (35 × 10 mm) with 3 mL of assay solution, depending on the drug treatment. The embryos receiving a mixture of DMSO (0.1%) were used as the vehicle-treated control and were equivalent to a “no treatment” group. All the experiments were repeated at least three times, with 20 embryos per group.

HepG-2 (liver cancer) = assay: in vitro cytotoxicity against HepG-2; format: cell-based; details: Homo sapiens
Procedure: as §1, §2

[4] = MCF7, MCF-7 cells, mean ± SD, read-out: IC50 MCF-7
[5] = Table 4, mean ± SD, read-out: MIC Staphylococcus aureus
[6] = Table 4, mean ± SD, read-out: MIC Bacillus subtilis
[7] = MCF7, primary screening, 50 μM, read-out: Inhibition rate MCF-7
[8] = A549, primary screening, 50 μM, read-out: Inhibition rate A549
[9] = SF-268, primary screening, 50 μM, read-out: Inhibition rate SF-268
[10] = HepG2, primary screening, 50 μM, read-out: Inhibition rate HepG-2
[11] = read-out: MIC against Bacillus subtilis
[12] = read-out: MIC against Staphylococcus aureus

Compound | inhibition at 50 µM (MCF-7 (breast cancer); [7]) [%] | inhibition at 50 µM (A549 (lung cancer); [8]) [%] | inhibition at 50 µM (Staphylococcus aureus) [%] | inhibition at 50 µM (Bacillus subtilis) [%] | inhibition at 50 µM [2, 9] [%] | inhibition at 50 µM (HepG-2 (liver cancer); [10]) [%] | Inhibition rate antioxidative activity [1] [%] | also measured
COc1cccc2c1C(=O)c1c(O)c3c(c(O)c1C2=O)C[C@@](O)(C(=O)CO)C[C@@H]3O[C@H]1C[C@H](N)[C@H](O)[C@H](C)O1 [Adriamycin, reference compound] |  |  |  |  |  |  |  | IC50 (MCF-7 (breast cancer); [4]): 2.02 ± 0.04 µM
O=C1O[C@H]([C@@H](O)CO)C(O)=C1O [Ascorbic acid, reference compound] |  |  |  |  |  |  |  | EC50 [1]: 11.3 ± 0.56 µM
O=C(O)c1cn(C2CC2)c2cc(N3CCNCC3)c(F)cc2c1=O [Ciprofloxacin, reference compound] |  |  |  |  |  |  |  | MIC (Staphylococcus aureus; [5]): 0.07 ± 0.001 µg/mL; MIC (Bacillus subtilis; [6]): 0.09 ± 0.003 µg/mL
CN1C(=O)C(Cc2ccc(O)cc2)NC(=O)CNC(=O)c2ccccc2NC(=O)C1Cc1ccccc1 (stereo not drawn) [Compound 1, asperhiratide] (cyclo([2Abz]GY[NMeF]); configuration not given here) | 1.03 | 4.4 | 5.22 | 3.87 | 0.82 | 0.38 | 4.30 | inhibitory effect on intersegmental vessel (ISV) formation [3]: weak inhibitory effect
CC1C(=O)OCC1CC(OC(=O)c1ccccc1)C(C)(O)C1CCC2(O)C3=CC(=O)C4CC(O)C(O)CC4(C)C3CCC12C [Compound 2, 2S,3R,5R,9S,10R,13R,14R,17S,20R,22R,24S,27S-29-norcyasterone-22-O-benzoate] | 1.01 | 1.21 | 4.34 | 0.67 | 1.43 | 1.45 | 1.60 | 
C=C1CCC2CC1C2(C)C1CCC(C)C(=O)O1 (stereo not drawn) [Compound 3, asperhiratone] | 3.24 | 0.83 | 7.98 | 9.17 | 2.31 | 0.13 | 2.00 | 
CC(C)[C@H](C)C[C@@H](O)[C@](C)(O)C1CC[C@@]2(O)C3=CC(=O)C4C[C@@H](O)CC[C@]4(C)C3CC[C@]12C (stereo partly drawn) [Compound 4, schizaeasterone A] | 19.1 | 8.6 | 19.4 | 5.23 | 8.79 | 1.57 | 2.80 | 
C=C1C[C@]2(O)[C@@]3(C)CCC(=O)C(C)(C)C3=C(O)C(=O)[C@@]2(C)[C@@H]2C(=O)O[C@@](C)(C(=O)OC)C(=O)[C@@]12C [Compound 5, terretonin] | 5.62 | 2.97 | 11.8 | 8.18 | 4.58 | 3.52 | 1.90 | 
CC(C)[C@H](C)/C=C/[C@@H](C)[C@H]1CCC2C3=CC(=O)O[C@@]3(O)CC[C@@]21C (stereo partly drawn) [Compound 6, demethylincisterol A2] | 92.2 | 0.41 | 29.4 | 79.6 | 93.2 | 81.4 | 1.00 | IC50 (MCF-7 (breast cancer); [4]): 39.4 ± 0.52 µM; IC50 (A549 (lung cancer); A549 cells, mean ± SD, read-out: IC50 A549): 50.2 ± 0.54 µM; MIC (Bacillus subtilis; [6]): 10.3 ± 0.76 µg/mL; MIC (Bacillus subtilis; [11]): 10.3 ± 0.76 µM; IC50 ([2]; SF-268 cells, mean ± SD, read-out: IC50 SF-268): 34.8 ± 0.95 µM; IC50 (HepG-2 (liver cancer); HepG2, HepG-2 cells, mean ± SD, read-out: IC50 HepG-2): 43.6 ± 2.08 µM
CC(C)=CC=CC(C)C1CCC2(C)CC3C(C)=CC(=O)C3C(C(=O)O)=CCC12 (stereo not drawn) [Compound 7, asperophiobolin E] | 38.8 | 0.58 | 82.4 | 94.3 | 9.64 | 40.7 | 3.60 | MIC (Staphylococcus aureus; [5]): 103 ± 4.5 µg/mL; MIC (Staphylococcus aureus; [12]): 103 ± 4.5 µM; MIC (Bacillus subtilis; [6]): 17 ± 1.25 µg/mL; MIC (Bacillus subtilis; [11]): 17 ± 1.25 µM
COC(=O)[C@]1(Cc2ccc(O)c(CC=C(C)C)c2)OC(=O)C(O)=C1c1ccc(O)cc1 [Compound 8, butyrolactone I] |  |  | 84.4 | 91.3 |  |  | 2.50 | IC50 (MCF-7 (breast cancer); MCF7, read-out: IC50 MCF-7): 38.6 ± 2.48 µM; inhibition at 50 µM (MCF-7 (breast cancer); MCF7, read-out: Inhibition rate MCF-7): 50.7%; IC50 (A549 (lung cancer); A549, read-out: IC50 A549): 32.3 ± 2.36 µM; inhibition at 50 µM (A549 (lung cancer); A549, read-out: Inhibition rate A549): 21.5%; MIC (Staphylococcus aureus; read-out: MIC Staphylococcus aureus): 59.54 ± 0.5 µg/mL; MIC (Staphylococcus aureus; [12]): 59.54 ± 0.5 µM; MIC (Bacillus subtilis; read-out: MIC Bacillus subtilis): 5.3 ± 0.29 µg/mL; MIC (Bacillus subtilis; [11]): 5.3 ± 0.29 µM; IC50 ([2]; SF-268, read-out: IC50 SF-268): 31.4 ± 1.98 µM; inhibition at 50 µM ([2]; SF-268, read-out: Inhibition rate SF-268): 41.9%; IC50 (HepG-2 (liver cancer); HepG2, read-out: IC50 HepG-2): 31 ± 3.04 µM; inhibition at 50 µM (HepG-2 (liver cancer); HepG2, read-out: Inhibition rate HepG-2): 69.1%
COC(=O)[C@]1(Cc2ccc(O)c(CC(O)C(C)(C)O)c2)OC(=O)C(O)=C1c1ccc(O)cc1 (stereo partly drawn) [Compound 9, butyrolactones VI] | 17.7 | 0.29 | 19.6 | 3.76 | 8.47 | 5.43 |  | EC50 [1]: 12.2 ± 0.78 µM; IC50 ([1]; as given in abstract, read-out: radical scavenging activities against DPPH, IC50): 12.2 ± 0.78 µM
C=CC(C)(C)[C@@]12C[C@H]3C(=O)Nc4ccccc4C(=O)N3[C@H]1N(C=O)c1ccccc12 [Compound 10, epi-aszonalenins B] | 42.2 | 0.73 | 12.6 | 0.3 | 32.9 | 6.7 | 0.40 | 
CCCCCCCc1c(O)cc(CC=C(C)C)c(O)c1C=O [Compound 11, flavoglaucin] | 0.49 | 1.53 | 13 | 17.5 | 0.81 | 0.39 | 18.20 | 
COC(=O)C1=C[C@@H](O)[C@@H](O)[C@H](O)C1 [Compound 13, methyl shikimate] | 0.66 | 0.36 | 11.8 | 7.69 | 0.59 | 0.66 | 32.90 | 
